≈ marks a conversion by molar mass, not a printed value.
Experiments:
[1] = test system: Mycobacterium tuberculosis; assay: Antitubercular activity against Mycobacterium tuberculosis H37Rv ATCC 27294 after 28 days by agar dilution method; assay type: functional; settings: H37Rv ATCC 27294, 672 h
[2] = Cytotoxicity against mouse RAW264.7 cells assessed as inhibition of cell viability at 50 uM after 72 hrs by MTT assay relative to control; assay type: cell-based; settings: read-out: INH
[3] = test system: Mycobacterium tuberculosis; assay: Potency index, ratio of pyrazinamide MIC to compound MIC for Mycobacterium tuberculosis H37Rv ATCC 27294; assay type: functional
[4] = test system: Mycobacterium tuberculosis; assay: Potency index, ratio of ciprofloxacin MIC to compound MIC for Mycobacterium tuberculosis H37Rv ATCC 27294; assay type: functional

Structure (SMILES): O=C1Oc2ccccc2[C@@]12[C@H](c1ccc(Cl)cc1)[C@H]1CSCN1[C@]21C(=O)Nc2ccccc21
- MIC [1]: 3.12 µg/mL (≈ 6.58 µM)
- cytotoxicity at 72 h, 50 µM [2]: 32.3%

Structure (SMILES): COc1ccc([C@@H]2CN(C)[C@]3(C(=O)Nc4ccccc43)[C@@]23C(=O)Oc2ccccc23)cc1
- MIC [1]: 12.5 µg/mL (≈ 29.3 µM)

Structure (SMILES): O=C1Oc2ccccc2[C@@]12[C@H](c1ccccc1)[C@H]1CSCN1[C@]21C(=O)Nc2ccc(Br)cc21
- MIC [1]: 25 µg/mL (≈ 48.1 µM)

Structure (SMILES): CN1C[C@@H](c2ccc([N+](=O)[O-])cc2)[C@]2(C(=O)Oc3ccccc32)[C@@]12C(=O)Nc1ccccc12
- MIC [1]: 3.12 µg/mL (≈ 7.08 µM)
- cytotoxicity at 72 h, 50 µM [2]: 29.5%

Structure (SMILES): CN1C[C@@H](c2ccc(Cl)cc2)[C@]2(C(=O)Oc3ccccc32)[C@@]12C(=O)Nc1ccccc12
- MIC [1]: 6.25 µg/mL (≈ 14.5 µM)
- cytotoxicity at 72 h, 50 µM [2]: 30.1%

Structure (SMILES): O=C1Oc2ccccc2[C@@]12[C@H](c1ccc([N+](=O)[O-])cc1)[C@H]1CSCN1[C@]21C(=O)Nc2ccc(Br)cc21
- MIC [1]: 3.12 µg/mL (≈ 5.54 µM)
- cytotoxicity at 72 h, 50 µM [2]: 43.1%

Structure (SMILES): O=C1Oc2ccccc2[C@@]12[C@H](c1ccc(Cl)cc1)[C@H]1CSCN1[C@]21C(=O)Nc2ccc(Br)cc21
- MIC [1]: 3.12 µg/mL (≈ 5.64 µM)
- cytotoxicity at 72 h, 50 µM [2]: 34.6%

Structure (SMILES): CSc1ccc([C@@H]2[C@H]3CSCN3[C@]3(C(=O)Nc4ccc([N+](=O)[O-])cc43)[C@@]23C(=O)Oc2ccccc23)cc1
- MIC [1]: 12.5 µg/mL (≈ 23.5 µM)

Structure (SMILES): O=C1Oc2ccccc2[C@@]12[C@H](c1ccc([N+](=O)[O-])cc1)[C@H]1CSCN1[C@]21C(=O)Nc2ccccc21
- Ratio [3]: 4
- Ratio [4]: 2
- MIC [1]: 1.56 µg/mL (≈ 3.21 µM)
- cytotoxicity at 72 h, 50 µM [2]: 20.7%

Structure (SMILES): COc1ccc([C@@H]2[C@H]3CSCN3[C@]3(C(=O)Nc4ccccc43)[C@@]23C(=O)Oc2ccccc23)cc1
- Ratio [3]: 4
- Ratio [4]: 2
- MIC [1]: 1.56 µg/mL (≈ 3.32 µM)
- cytotoxicity at 72 h, 50 µM [2]: 27.5%

Structure (SMILES): Cc1ccc([C@@H]2[C@H]3CSCN3[C@]3(C(=O)Nc4ccc(Br)cc43)[C@@]23C(=O)Oc2ccccc23)cc1
- MIC [1]: 12.5 µg/mL (≈ 23.4 µM)

Structure (SMILES): Cc1ccc([C@@H]2[C@H]3CSCN3[C@]3(C(=O)Nc4ccccc43)[C@@]23C(=O)Oc2ccccc23)cc1
- MIC [1]: 12.5 µg/mL (≈ 27.5 µM)

Structure (SMILES): O=C1Oc2ccccc2[C@@]12[C@H](c1ccccc1)[C@H]1CSCN1[C@]21C(=O)Nc2ccccc21
- MIC [1]: 25 µg/mL (≈ 56.8 µM)

Structure (SMILES): NNC(=O)c1ccncc1 [ISONIAZID]
- MIC [1]: 0.05 µg/mL (≈ 0.365 µM)

Structure (SMILES): O=C1Oc2ccccc2[C@@]12[C@H](c1ccccc1)[C@H]1CSCN1[C@]21C(=O)Nc2ccc([N+](=O)[O-])cc21
- MIC [1]: 3.12 µg/mL (≈ 6.44 µM)
- cytotoxicity at 72 h, 50 µM [2]: 35.2%

Structure (SMILES): COc1ccc([C@@H]2[C@H]3CSCN3[C@]3(C(=O)Nc4ccc([N+](=O)[O-])cc43)[C@@]23C(=O)Oc2ccccc23)cc1
- MIC [1]: 25 µg/mL (≈ 48.5 µM)

Structure (SMILES): CSc1ccc([C@@H]2CN(C)[C@]3(C(=O)Nc4ccccc43)[C@@]23C(=O)Oc2ccccc23)cc1
- MIC [1]: 3.12 µg/mL (≈ 7.06 µM)
- cytotoxicity at 72 h, 50 µM [2]: 28.7%

Structure (SMILES): CO[C@H]1/C=C/O[C@@]2(C)Oc3c(C)c(O)c4c(O)c(c(/C=N/N5CCN(C)CC5)c(O)c4c3C2=O)NC(=O)/C(C)=C\C=C\[C@H](C)[C@H](O)[C@@H](C)[C@@H](O)[C@@H](C)[C@H](OC(C)=O)[C@@H]1C [RIFAMPIN]
- MIC [1]: 0.1 µg/mL (≈ 0.122 µM)

Structure (SMILES): O=C(O)c1cn(C2CC2)c2cc(N3CCNCC3)c(F)cc2c1=O [CIPROFLOXACIN]
- MIC [1]: 3.13 µg/mL (≈ 9.45 µM)

Structure (SMILES): O=C1Oc2ccccc2[C@@]12[C@H](c1ccc(Br)cc1)[C@H]1CSCN1[C@]21C(=O)Nc2ccc([N+](=O)[O-])cc21
- MIC [1]: 12.5 µg/mL (≈ 22.1 µM)

Structure (SMILES): CN1C[C@@H](c2ccccc2)[C@]2(C(=O)Oc3ccccc32)[C@@]12C(=O)Nc1ccccc12
- MIC [1]: 12.5 µg/mL (≈ 31.5 µM)

Structure (SMILES): O=C1Oc2ccccc2[C@@]12[C@H](c1ccc(Br)cc1)[C@H]1CSCN1[C@]21C(=O)Nc2ccc(Br)cc21
- MIC [1]: 3.12 µg/mL (≈ 5.22 µM)
- cytotoxicity at 72 h, 50 µM [2]: 32.4%

Structure (SMILES): CSc1ccc([C@@H]2[C@H]3CSCN3[C@]3(C(=O)Nc4ccccc43)[C@@]23C(=O)Oc2ccccc23)cc1
- MIC [1]: 12.5 µg/mL (≈ 25.7 µM)

Structure (SMILES): COc1ccc([C@@H]2[C@H]3CSCN3[C@]3(C(=O)Nc4ccc(Br)cc43)[C@@]23C(=O)Oc2ccccc23)cc1
- MIC [1]: 50 µg/mL (≈ 91 µM)

Structure (SMILES): CC[C@@H](CO)NCCN[C@@H](CC)CO [ETHAMBUTOL]
- MIC [1]: 1.56 µg/mL (≈ 7.64 µM)

Structure (SMILES): NC(=O)c1cnccn1 [PYRAZINAMIDE]
- MIC [1]: 6.25 µg/mL (≈ 50.8 µM)

Structure (SMILES): O=C1Oc2ccccc2[C@@]12[C@H](c1ccc([N+](=O)[O-])cc1)[C@H]1CSCN1[C@]21C(=O)Nc2ccc([N+](=O)[O-])cc21
- MIC [1]: 50 µg/mL (≈ 94.2 µM)

Structure (SMILES): Cc1ccc([C@@H]2[C@H]3CSCN3[C@]3(C(=O)Nc4ccc([N+](=O)[O-])cc43)[C@@]23C(=O)Oc2ccccc23)cc1
- MIC [1]: > 25 µg/mL

Structure (SMILES): O=C1Oc2ccccc2[C@@]12[C@H](c1ccc(Br)cc1)[C@H]1CSCN1[C@]21C(=O)Nc2ccccc21
- MIC [1]: 3.12 µg/mL (≈ 6.02 µM)
- cytotoxicity at 72 h, 50 µM [2]: 28.5%

Structure (SMILES): CSc1ccc([C@@H]2[C@H]3CSCN3[C@]3(C(=O)Nc4ccc(Br)cc43)[C@@]23C(=O)Oc2ccccc23)cc1
- MIC [1]: 6.25 µg/mL (≈ 11.1 µM)
- cytotoxicity at 72 h, 50 µM [2]: 28.1%
